# Ends that are not written are not given here.
# Target: T1, β2-AR/RLuc8 with GFP^2/β-arr2 Arg393Glu, Arg395Glu (Homo sapiens, UniProt P07550)
# T1 construct: expressed in transfected cells; host or cells: HEK-293
# Assay: BRET^2-based β-arrestin 2 recruitment assay
# Assay type: cell-based
# T1 sequence (P07550 whole entry, change not shown): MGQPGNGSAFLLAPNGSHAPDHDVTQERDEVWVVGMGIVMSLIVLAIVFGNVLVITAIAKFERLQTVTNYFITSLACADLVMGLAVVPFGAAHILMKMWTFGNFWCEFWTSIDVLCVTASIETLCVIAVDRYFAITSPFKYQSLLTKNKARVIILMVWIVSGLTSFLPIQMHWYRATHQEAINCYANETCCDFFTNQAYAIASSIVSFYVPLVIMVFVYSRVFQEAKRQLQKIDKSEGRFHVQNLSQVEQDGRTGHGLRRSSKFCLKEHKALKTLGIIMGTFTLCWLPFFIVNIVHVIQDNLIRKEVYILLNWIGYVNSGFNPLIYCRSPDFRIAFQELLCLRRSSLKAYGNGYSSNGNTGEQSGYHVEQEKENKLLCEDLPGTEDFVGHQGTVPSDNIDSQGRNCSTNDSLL
sequence,measurement,setting,value
EDTAVYYCNANWDLLSD [P3],EC50,,~1 nM
same,reduction in isoproterenol-induced BRET^2 signal,"homogenized or permeabilized cells, 10 µM isoproterenol, P3 10^−12 to 10^−5 M, dose-dependent, maximum",up to 10%

# From paper PMC6851183, “Computational design and characterization of nanobody-derived peptides that stabilize the active conformation of the β2-adrenergic receptor (β2-AR)” (Scientific Reports, 2019)
